Measured values reported in paper PMC11524583, “Neurons enhance blood–brain barrier function via upregulating claudin-5 and VE-cadherin expression due to glial cell line-derived neurotrophic factor secretion” (eLife, 2024).
Where “and” joins values, the source holds several entries; their conditions need not be identical. Equal entries are not always repeated. Where two headings read alike, the source gives them in different places.

What was measured:
[1] = tested on: double co-culture BBB model (hCMEC/D3 and SH-SY5Y cells); experiment: In vitro BBB permeability study (Papp), double co-culture with SH-SY5Y cells (h+S); format: in vitro ADME, Homo sapiens; conditions: group h+S, Figure 1D/1E; single biological replicate; listed as NaF
[2] = as above; format: in vitro ADME, Homo sapiens; conditions: human, group h+S, Figure 1D/1E
[3] = In vitro BBB permeability study (Papp), double co-culture with U251 cells (h+U); format: in vitro ADME, Homo sapiens; conditions: human, group h+U, Figure 1D/1E
[4] = tested on: double co-culture BBB model (hCMEC/D3 and U251 cells); experiment: as above; format: in vitro ADME, Homo sapiens; conditions: group h+U, Figure 1D/1E; single biological replicate; listed as NaF
[5] = Permeability (Papp) across the blank inserts; format: in vitro ADME; conditions: blank inserts (no cells), Figure 1F; for Papp at 30 min: not told
Experimental: Therefore, the subsequent experiments were all completed on day 6. The culture medium was removed from the apical and basolateral sides of the inserts and washed twice with preheated Hank’s balanced salt solution (HBSS). Fresh HBSS was then added to both the apical and basolateral chambers. […] Next, 200 μl aliquots were collected from the basolateral chamber after 30 min of incubation at 37°C. The concentrations of the tested agents in the basolateral chamber were measured.
The apparent permeability coefficient (Papp, cm/s) values of the tested agents across the in vitro BBB model were calculated using the equation ([Tavelin et al., 2002]):(1) Papp=(Q/1800)/(S×C0)
where S is the surface area of the insert membrane (0.33 cm^2 for 6.5 mm inserts, 4.46 cm^2 for 24 mm inserts), Q is the transported amount of the tested agents transported from the donor chamber to the receiver chamber for 30 min (1800 s), and C0 is the initial concentration of the tested agents in the donor chamber.

[6] = tested on: hCMEC/D3 mono-culture BBB model; experiment: In vitro BBB permeability study (Papp), hCMEC/D3 mono-culture BBB model
[7] = as above; conditions: human
[8] = BBB permeability in brain-specific Gdnf knockdown mice (brain distribution of fluorescein and FITC-Dex); conditions: Gdnf silencing (shGdnf) vs shNC mice; i.v., 30 min
[9] = In vitro BBB permeability study (Papp), triple co-culture BBB model; conditions: human
[10] = tested on: triple co-culture BBB model (hCMEC/D3, U251 and SH-SY5Y cells); experiment: as above
[11] = tested on: U251 cells monolayer; experiment: Permeability (Papp) across U251 mono-culture model; format: in vitro ADME, Homo sapiens; conditions: group U251 mono-culture, Figure 1F; single replicate
[12] = Permeability (Papp) across U251 mono-culture model; format: in vitro ADME, Homo sapiens; conditions: human, group U251 mono-culture, Figure 1F
[13] = mean of four replicates, read-out: Papp Mean
[14] = single biological replicate, read-out: Papp
[15] = single replicate, read-out: Papp

## O=C1OC2(c3ccc(O)cc3Oc3cc(O)ccc32)c2ccccc21 [fluorescein, fluorescein sodium]
[1]
  Papp A→B: 29.1 ×10⁻⁶ cm/s and 23.2 ×10⁻⁶ cm/s and 29.5 ×10⁻⁶ cm/s
[2]; [13]
  Papp A→B at 30 min: 27.8 ×10⁻⁶ cm/s
[2]; [14]
  Papp A→B at 30 min: 29.4 ×10⁻⁶ cm/s
[3]; [13]
  Papp A→B at 30 min: 29.1 ×10⁻⁶ cm/s
[3]; [14]
  Papp A→B at 30 min: 28.2 ×10⁻⁶ cm/s
[4]
  Papp A→B: 30.2 ×10⁻⁶ cm/s and 29.6 ×10⁻⁶ cm/s and 28.1 ×10⁻⁶ cm/s
[5]; single replicate
  Papp: 72.71 ×10⁻⁶ cm/s and 72.14 ×10⁻⁶ cm/s and 72.59 ×10⁻⁶ cm/s
[5]; [13]
  Papp at 30 min: 71.6 ×10⁻⁶ cm/s
[5]; [15]
  Papp at 30 min: 68.7 ×10⁻⁶ cm/s
[6]; read-out: Papp(cm/s), Figure 2N, group GDNF+SPP, individual replicates
  Papp A→B: 22 ×10⁻⁶ cm/s and 26.7 ×10⁻⁶ cm/s
[6]; read-out: Papp(cm/s), Figure 2N, group GDNF, individual replicates
  Papp A→B: 17.7 ×10⁻⁶ cm/s and 20.6 ×10⁻⁶ cm/s and 18.3 ×10⁻⁶ cm/s
[6]; read-out: Papp(cm/s), Figure 2N, group Mono, individual replicates
  Papp A→B: 24.3 ×10⁻⁶ cm/s and 25.1 ×10⁻⁶ cm/s and 23.7 ×10⁻⁶ cm/s
[6]; read-out: Papp(cm/s), Figure 2P, group GDNF+PP2, individual replicates
  Papp A→B: 28.3 ×10⁻⁶ cm/s
[6]; read-out: Papp(cm/s), Figure 2P, group GDNF, individual replicates
  Papp A→B: 23.3 ×10⁻⁶ cm/s (2×) and 23.8 ×10⁻⁶ cm/s
[6]; read-out: Papp(cm/s), Figure 2P, group Mono, individual replicates
  Papp A→B: 30.5 ×10⁻⁶ cm/s and 31.5 ×10⁻⁶ cm/s and 30.3 ×10⁻⁶ cm/s
[6]; read-out: Papp(cm/s), group h, Figure 1D/1E, single biological replicate, listed as NaF
  Papp A→B: 32 ×10⁻⁶ cm/s and 32.7 ×10⁻⁶ cm/s and 32.5 ×10⁻⁶ cm/s
[6]; read-out: Papp(cm/s), group hCEMC/D3 mono-culture, Figure 1F, single replicate
  Papp A→B: 35.9 ×10⁻⁶ cm/s and 34.8 ×10⁻⁶ cm/s and 36 ×10⁻⁶ cm/s
[6]; read-out: Papp, Mono group, single replicates, Figure 2R
  Papp A→B: 31.7 ×10⁻⁶ cm/s and 33.3 ×10⁻⁶ cm/s and 31.4 ×10⁻⁶ cm/s
[6]; read-out: Papp, Mono group, single replicates, Figure 2T
  Papp A→B: 29.5 ×10⁻⁶ cm/s and 30.3 ×10⁻⁶ cm/s
[7]; Papp Mean, Mono group, mean of 4, Figure 2R
  Papp A→B at 30 min: 31.8 ×10⁻⁶ cm/s
[7]; Papp Mean, Mono group, mean of 4, Figure 2T
  Papp A→B at 30 min: 30.4 ×10⁻⁶ cm/s
[7]; Papp Mean, group h, Figure 1D/1E, mean of four replicates
  Papp A→B at 30 min: 32.2 ×10⁻⁶ cm/s
[7]; Papp Mean, group hCEMC/D3 mono-culture, Figure 1F, mean of four replicates
  Papp A→B at 30 min: 35.7 ×10⁻⁶ cm/s
[7]; Papp(cm/s) Mean, Figure 2N, group GDNF+SPP, group mean
  Papp A→B at 30 min: 24.5 ×10⁻⁶ cm/s
[7]; Papp(cm/s) Mean, Figure 2N, group GDNF, group mean
  Papp A→B at 30 min: 19 ×10⁻⁶ cm/s
[7]; Papp(cm/s) Mean, Figure 2N, group Mono, group mean
  Papp A→B at 30 min: 23.8 ×10⁻⁶ cm/s
[7]; Papp(cm/s) Mean, Figure 2P, group GDNF+PP2, group mean
  Papp A→B at 30 min: 28.2 ×10⁻⁶ cm/s
[7]; Papp(cm/s) Mean, Figure 2P, group GDNF, group mean
  Papp A→B at 30 min: 23.5 ×10⁻⁶ cm/s
[7]; Papp(cm/s) Mean, Figure 2P, group Mono, group mean
  Papp A→B at 30 min: 30.8 ×10⁻⁶ cm/s
[7]; Papp(cm/s), Figure 2N, group GDNF+SPP, individual replicates
  Papp A→B at 30 min: 26.5 ×10⁻⁶ cm/s
[7]; Papp(cm/s), Figure 2N, group GDNF, individual replicates
  Papp A→B at 30 min: 19.4 ×10⁻⁶ cm/s
[7]; Papp(cm/s), Figure 2N, group Mono, individual replicates
  Papp A→B at 30 min: 21.9 ×10⁻⁶ cm/s
[7]; Papp(cm/s), Figure 2P, group GDNF+PP2, individual replicates
  Papp A→B at 30 min: 27.5 ×10⁻⁶ cm/s
[7]; Papp(cm/s), Figure 2P, group GDNF, individual replicates
  Papp A→B at 30 min: 23.6 ×10⁻⁶ cm/s
[7]; Papp(cm/s), Figure 2P, group Mono, individual replicates
  Papp A→B at 30 min: 31 ×10⁻⁶ cm/s
[7]; Papp(cm/s), group h, Figure 1D/1E, single biological replicate
  Papp A→B at 30 min: 31.7 ×10⁻⁶ cm/s
[7]; Papp(cm/s), group hCEMC/D3 mono-culture, Figure 1F, single replicate
  Papp A→B at 30 min: 36.2 ×10⁻⁶ cm/s
[7]; Papp, Mono group, single replicates, Figure 2R
  Papp A→B at 30 min: 30.7 ×10⁻⁶ cm/s
[7]; Papp, Mono group, single replicates, Figure 2T
  Papp A→B at 30 min: 30.8 ×10⁻⁶ cm/s
[8]
  brain-to-plasma concentration ratios: notable increases
[9]; Papp Mean, Triple group, mean of 4, Figure 2R
  Papp A→B at 30 min: 25 ×10⁻⁶ cm/s
[9]; Papp Mean, Triple group, mean of 4, Figure 2T
  Papp A→B at 30 min: 20.5 ×10⁻⁶ cm/s
[9]; Papp Mean, Triple+PP2 group, mean of 4, Figure 2T
  Papp A→B at 30 min: 27.5 ×10⁻⁶ cm/s
[9]; Papp Mean, Triple+SPP group, mean of 4, Figure 2R
  Papp A→B at 30 min: 30 ×10⁻⁶ cm/s
[9]; Papp Mean, group h+S+U, Figure 1D/1E, mean of four replicates
  Papp A→B at 30 min: 24.9 ×10⁻⁶ cm/s
[9]; Papp(cm/s), group h+S+U, Figure 1D/1E, single biological replicate
  Papp A→B at 30 min: 26.1 ×10⁻⁶ cm/s
[9]; Papp, Triple group, single replicates, Figure 2R
  Papp A→B at 30 min: 25.3 ×10⁻⁶ cm/s
[9]; Papp, Triple group, single replicates, Figure 2T
  Papp A→B at 30 min: 21.5 ×10⁻⁶ cm/s
[9]; Papp, Triple+PP2 group, single replicates, Figure 2T
  Papp A→B at 30 min: 28.2 ×10⁻⁶ cm/s
[9]; Papp, Triple+SPP group, single replicates, Figure 2R
  Papp A→B at 30 min: 30.6 ×10⁻⁶ cm/s
[10]; read-out: Papp(cm/s), group h+S+U, Figure 1D/1E, single biological replicate, listed as NaF
  Papp A→B: 26.4 ×10⁻⁶ cm/s and 23.5 ×10⁻⁶ cm/s and 23.6 ×10⁻⁶ cm/s
[10]; read-out: Papp, Triple group, single replicates, Figure 2R
  Papp A→B: 24.7 ×10⁻⁶ cm/s and 24.9 ×10⁻⁶ cm/s and 25 ×10⁻⁶ cm/s
[10]; read-out: Papp, Triple group, single replicates, Figure 2T
  Papp A→B: 20.2 ×10⁻⁶ cm/s and 20.5 ×10⁻⁶ cm/s and 19.8 ×10⁻⁶ cm/s
[10]; read-out: Papp, Triple+PP2 group, single replicates, Figure 2T
  Papp A→B: 26.4 ×10⁻⁶ cm/s
[10]; read-out: Papp, Triple+SPP group, single replicates, Figure 2R
  Papp A→B: 29.1 ×10⁻⁶ cm/s and 30.2 ×10⁻⁶ cm/s
[11]
  Papp A→B: 30.6 ×10⁻⁶ cm/s and 31.9 ×10⁻⁶ cm/s and 30.2 ×10⁻⁶ cm/s
[12]; [13]
  Papp A→B at 30 min: 30.6 ×10⁻⁶ cm/s
[12]; [15]
  Papp A→B at 30 min: 29.5 ×10⁻⁶ cm/s
